Experimental data reported in patent US10674699B2, “Endophyte enhanced seedlings with increased pest tolerance” (priority 2006, dated 2020).

Tests used:
[1] = system: Lambdina fiscellaria (hemlock looper) larvae; test: Dietary rugulosin in artificial diet, hemlock looper larvae; format: in vivo; conditions: 1 week
Experimental: The toxicity of an endophyte toxin on a pest such as hemlock looper is optionally tested according to the following method. The toxin to be tested is incorporated into an artificial diet suitable for pest growth. Artificial diet is prepared in individual cups, containing toxin concentrations of 5 micromolar, 10 micromolar, 25 micromolar, 50 micromolar and 100 micromolar. One 3rd instar insect is added to each of 75 cups per dilution and incubated in a growth chamber under appropriate conditions such as at 22 C, 55% relative humidity with 16 h light/day. After 4 days, the insects are frozen, weighed and their head capsules measured. A reduction in head capsule size (eg. width) or weight compared to a control sample is indicative of the presence of a toxin. One skilled in the art would understand that this method can be modified to test different concentrations of toxin and that the conditions can be modified to test a variety of different pests.
Lambdina fiscellaria eggs (hemlock looper) were purchased from Forestry Canada in three lots. The eggs were incubated at room temperature for 10 d until larvae emerged. Larvae from each batch emerged within two days of each other and were immediately put on diet in cups as above. […] After 1 week on the test diets, the larvae were frozen, weighed and head capsule width determined.

[2] = system: Choristoneura fumiferana (spruce budworm) larvae; test: Dietary rugulosin in artificial diet, spruce budworm larvae; format: in vivo
Experimental: Spruce budworm (Choristoneura fumiferana) larvae were obtained from the colony at the Natural Resources Canada, Canadian Forest Service Laboratory in Sault Ste. Marie, Ontario and stored at 5° C. For each test, second instar larvae are put in creamer cups containing approximately 15 ml of artificial diet which had been prepared the day before and allowed to set overnight. The diet used is based on McMorran (1965) as modified by Forestry Canada. The cups are placed in a growth chamber at 22° C., 55% RH with 16 h light/day until they reach 4-5 instar as estimated by visually assessment. Batches of diet are prepared and suitable portions were measured out for addition of extracts, fractions or pure compounds. After 4 days on the test diet, the budworms were frozen, weighed and measured. The data was analyzed for dry weight reductions in comparison to controls and for changes in the distribution of insects at different instars in comparison to controls.
C. fumiferana larvae (spruce budworm) were obtained from Insect Production Services, Forestry Canada (Sault Ste. Marie, ON) and stored at 5° C. For each test, a sufficient number of larvae were hatched and put in creamer cups containing 15 ml of artificial diet. The diet was prepared in-house (McMorran 1965). The cups were placed in a growth chamber at 22° C., 55% RH with 16 h light/day until the larvae reached second/third instar (McGugan 1954). A suitable amount of diet was prepared, and 4 aliquots dispensed into a flask. Dilutions of pure rugulosin were made in 95% ethanol to provide the required concentrations (540 μl ethanol solution plus the vehicle control) and added to the flasks respectively. The diet was mixed with a stir bar and by the pipette used to dispense the media. Two drops of hot liquid diet were added with a 10 ml sterile pipette (0.1 g dry weight) to 4 ml tapered plastic sample cups (Fisher Scientific #025444, #25444A). […] Head capsule widths were determined using a stereo microscope at 40× with ocular and stage micrometers. […]

[3] = system: ovarian cells of the fall armyworm, Spodoptera frugiperda; conditions: Watts et al. 2003; cited from earlier work
[4] = system: fruit flies (Drosophila melanogaster); conditions: Dobias et al. 1980; cited from earlier work
[5] = system: Gram positive and negative bacteria; conditions: reported by many authors, e.g. Stark et al. 1978; cited from earlier work
[6] = system: Zeiraphera canadensis larvae (spruce budmoth); test: Dietary rugulosin in artificial diet, wild collected spruce budmoth larvae; format: in vivo
Experimental: Zeiraphera canadensis larvae (spruce budmoth) were collected from the wild near Sussex in mid June. They were immediately put in test vials and tested at rugulosin concentrations of 10, 50, 100 and 150 μM (75 per concentration). After seven days, surviving larvae were frozen and measured.

Structure (SMILES): Cc1cc(O)c2c(c1)C(=O)[C@]13C(=C2O)C(=O)[C@@H]2[C@H](O)[C@H]1[C@@H]1[C@@H](O)[C@H]3C(=O)C3=C(O)c4c(O)cc(C)cc4C(=O)[C@]312 [rugulosin]
- dietary rugulosin concentration with significantly reduced head capsule [1]: 150 µM
- dietary rugulosin concentration with significantly reduced head capsule ([2]; artificial diet, 4 d): 100 µM
- dietary toxic effect level for rugulosin ([2]; dietary LOEL adjusted for mean ratio dry weight:wet weight of needles): 0.5 µg/g
- rugulosin concentration in vitro that affected budworm growth and development ([2]; in vitro (diet), Example 1): 1 µg/g
- toxicity to cultured cells [3]: toxic
- dietary toxicity of rugulosin [4]: ~50 µM
- toxicity to Drosophila melanogaster [4]: toxic
- antibiotic activity [5]: antibiotic
- larval weights, controls vs treatment groups by ANOVA (LSD, Tukey) ([6]; 10, 50, 100 and 150 μM rugulosin, seven days): not significantly different
- effect of rugulosin on wild collected larvae relative to the other insect species ([6]; diet): same order of magnitude
- dietary concentration reducing body weight and/or affecting instar development ([6]; in vitro, diet): ~50 µM
